Test results: patent US11293024B2, “Antisense antibacterial compounds and methods” (priority 2014, dated 2022)

Tested on: P. aeruginosa PAO1 biofilm
Experiment: Biofilm prevention in MBEC plate (crystal violet)
Format: cell-based, Pseudomonas aeruginosa
Conditions: 5 μM PPMO, 2 μg/mL PMBN, MHII, 20 hours; one-way ANOVA p<0.0001
Experimental: P. aeruginosa PAO1 (5×10^5 cfu/mL) was grown in MHII media in an MBEC plate for 20 hours either alone or in the presence of 5 μM of the indicated PPMOs, PMBN alone, (RXR)4, or a scrambled PPMO. All conditions contained 2 μg/mL of PMBN unless indicated otherwise. Pegs were processed for crystal violet or visualized by microscopy at 20 hours. […] FIGS. 6B-6D: Spinning Disk confocal microscopy images of 20 hour biofilm treated with (FIG. 6B) No PPMO, (FIG. 6C) 5 μM Scr PPMO #41, (FIG. 6D) 5 μM RpsJ PPMO #14. PAO1 GFP is shown in green and biofilm is shown in red. The biofilm is stained with 200 μg/mL of Concanavalin A, Alexafluor 647 conjugate.
Pseudomonas aeruginosa Biofilm Prevention in MBEC Plate Protocol
• 1. 10 mL of MH is inoculated with a single colony and incubated at 37° C. and ˜250 rpm for about 5 hours. • 2. The sample is centrifuged for 10 minutes at ˜4000 rpm at 4° C., the supernatant is decanted and the pellet resuspended in 10 mL of 150 mM NaCl or PBS. This step is repeated to wash the pellet 3 times. • 3. The sample is resuspended in 10 mL 150 mM NaCl or PBS. • 4. The OD600 of the sample is taken and cfu/mL is calculated. (OD600 usually between 0.65-0.80). • 5. A Bacterial Working Solution (BWS) is made by inoculating 10 mL of MH to 5×10^5 cfu/mL final concentration. • 6. 2 μL/mL of 1 mg/mL stock PMBN is added to the BWS and vortexed 3 times. • 7. 1 mL of BWS is pipetted into each separate Eppendorf tube for each condition that is tested. • 8. An appropriate amount of PPMO is added to each Eppendorf tube and vortexed 3 times. • 9. Outside wells are filled with fresh MH, NaCl, or PBS to keep the outer pegs from drying out. • 10. One column of the MBEC plate is filled with 150 μL per well from each Eppendorf tube (one condition per column). • 11. Pegs are placed into the MBEC plate and the edges covered with a breathable membrane. • 12. The MBEC plate is incubated for 18-20 hours at 37° C. and 110 rpm. Day 2:
1. […] The final OD570 of the 10× dilution of solution should be approximately 0.500 absorbance. […]
2. OD reading: The OD570 for the 96-well plate from step 1e is determined. […]

PPMO #14: RpsJ PMO GCATTTGACCT, 5′ TEG, 3′ (RXR)4XB CPP
prevention of biofilm (crystal violet): statistically significant prevention of biofilm
